Test results taken from patent US11137686B2, “Material for forming underlayer film for lithography, composition for forming underlayer film for lithography, underlayer film for lithography and production method thereof, and resist pattern forming method” (Mitsubishi Gas Chemical Company, Inc., priority 2015, dated 2021).

Key:
[1] = Thermal weight loss temperature (thermogravimetric measurement, TG); assay type: physicochemical; conditions: heated to 500° C. at 10° C./min, nitrogen stream
Experimental: (Thermal Weight Loss Temperature)
An “EXSTAR 6000 […] apparatus” manufactured by SII NanoTechnology Inc. was used, and about 5 mg of a sample was placed in an unsealed aluminum container and heated to 500° C. at a rate of temperature rise of 10° C./min in a nitrogen gas (30 mL/min) stream. The 10% thermal weight loss temperature was here measured.

[2] = Solubility in PGME and PGMEA at 23° C.; assay type: physicochemical; conditions: for solubility in PGME: 1-methoxy-2-propanol (PGME); for solubility in PGMEA: propylene glycol monomethyl ether acetate (PGMEA)
Experimental: The amount of each compound dissolved in 1-methoxy-2-propanol (PGME) and propylene glycol monomethyl ether acetate (PGMEA) was measured at 23° C., and the results were evaluated with respect to the solubility according to the following criteria.
Evaluation A: 20% by mass or more
Evaluation B: 10% by mass or more and less than 20% by mass
Evaluation C: less than 10% by mass

Compound	10% thermal weight loss temperature [1] [°C]	solubility in PGME [2] [% by mass]	solubility in PGME, Evaluation [2]	solubility in PGMEA, Evaluation [2]	solubility in PGMEA [2] [% by mass]
Oc1ccc2ccc3c(c2c1)C(c1ccc(I)cc1)c1c(ccc2ccc(O)cc12)O3 [B-2]	≥ 400	≥ 20	A (Evaluation A: 20% by mass or more)	A (Evaluation A: 20% by mass or more)	≥ 20
Oc1ccc2c3c(ccc2c1)Oc1ccc2cc(O)ccc2c1C3c1ccc(I)o1 [A-4]	≥ 400	≥ 20	A (Evaluation A: 20% by mass or more)	A (Evaluation A: 20% by mass or more)	≥ 20
Oc1ccc2ccc3c(c2c1)C(c1ccc(I)o1)c1c(ccc2ccc(O)cc12)O3 [B-4]	≥ 400	≥ 20	A (Evaluation A: 20% by mass or more)	A (Evaluation A: 20% by mass or more)	≥ 20
Oc1ccc2c3c(ccc2c1)Oc1ccc2cc(O)ccc2c1C3c1ccc(I)cc1 [A-2]	≥ 400	≥ 20	A (Evaluation A: 20% by mass or more)	B (Evaluation B: 10% by mass or more and less than 20% by mass)	
COc1cc(C2c3c(ccc4cc(O)ccc34)Oc3ccc4cc(O)ccc4c32)cc(I)c1O [A-3]	≥ 400	≥ 20	A (Evaluation A: 20% by mass or more)	A (Evaluation A: 20% by mass or more)	≥ 20
COc1cc(C2c3c(ccc4ccc(O)cc34)Oc3ccc4ccc(O)cc4c32)cc(I)c1O [B-3]	≥ 400	≥ 20	A (Evaluation A: 20% by mass or more)	A (Evaluation A: 20% by mass or more)	≥ 20
